Laboratory results published in patent US9216163B2, “Method of inhibiting angiogenesis” (KYORIN PHARMACEUTICAL CO., LTD, priority 2013, dated 2015).

What was measured:
HUVEC [1] = assay: VEGF-induced cell migration of HUVEC; type: cell-based, human; conditions: 100 μM pretreatment 15 minutes, VEGF 30 ng/mL, after 12 hours
Method: An effect of L-carbocisteine against cell migration promoted by VEGF was evaluated in vitro using HUVEC. HUVEC were inoculated in a plate, and cultured until confluent. Subsequently, the HUVEC were cultured in a medium without VEGF and bFGF overnight under starvation condition. The HUVEC were pretreated with L-carbocisteine (100 μM) for 15 minutes. The cells (HUVEC) on the plate were peeled at certain intervals. The cells remaining on the plate were stimulated by VEGF (30 ng/mL). After 12 hours, the distance of cell migration was measured (n=4).

HUVEC [2] = assay: VEGF-induced cell growth of HUVEC (Cell Counting Kit-8); type: cell-based, human; conditions: VEGF 30 ng/mL
Method: An effect of L-carbocisteine against cell growth promotion by VEGF was evaluated in vitro using HUVEC. HUVEC were inoculated at 2,500 cells/well in a 96-well microplate, and cultured for 24 hours. Subsequently, the HUVEC were cultured in a medium without VEGF and bFGF overnight under a starvation condition. The HUVEC were pretreated with L-carbocisteine (10, 50, 100, and 200 μM) for 15 minutes, and then stimulated by VEGF (30 ng/mL). The number of living cells after 48 hours was determined by Cell Counting Kit-8 (manufactured by DOJINDO LABORATORIES) (n=6). 2) Results

[3] = test system: c-Jun N-terminal kinase (JNK); assay: VEGF-induced phosphorylation of JNK in HUVEC (Western blot); type: cell-based, human; conditions: 100 μM pretreatment 15 minutes, VEGF 30 ng/mL for 5 or 15 minutes
Method: (§1) An effect of L-carbocisteine against phosphorylation of Akt, Erk1/2, c-Jun N-terminal kinase (JNK), and p38 MAP kinase accelerated by VEGF stimulation was evaluated using HUVEC. HUVEC were inoculated, and cultured in an EBM-2 medium containing 0.1% FBS overnight under starvation condition. The HUVEC were pretreated with L-carbocisteine (100 μM) for 15 minutes, and stimulated by VEGF (30 ng/mL) for 5 or 15 minutes. Phosphorylation accelerated by VEGF stimulation was evaluated using phosphor-specific antibodies against various kinases by a Western blot method. The level of kinase protein expression was investigated using each antibody after detection of phosphorylation.

[4] = test system: VEGF-induced angiogenesis formed in Matrigel; assay: VEGF-induced angiogenesis in Matrigel, in vivo mouse model (Evans blue); conditions: male C57BL/6J mouse, 5 μg/g B.W. intraperitoneal twice daily for 14 days
Method: An effect of L-carbocisteine against angiogenesis promoted by VEGF was evaluated in an in vivo mouse model. A male C57BL/6J mouse (6 weeks) was anesthetized with pentobarbital. Subsequently, 500 μL of BD™ matrix containing 30 ng/mL VEGF was subcutaneously injected into the side of the mouse using a 27-G needle. L-carbocisteine (5 μg per g of body weight of the mouse) or physiologic saline (the same volume) was intraperitoneally administered twice a day, morning and evening, for 14 days. After completion of the administration for 14 days, Evans blue was administered to the mouse via the orbital vein plexus. The mouse was sufficiently perfused with EDTA, and anesthetized with pentobarbital. The matrigel was taken out from the body of the mouse. The weight of taken matrigel was measured, and the matrigel was immersed in a formamide solution and allowed to stand at 37° C. for 48 hours. Following elution of Evans blue in the formamide solution, the weight of eluted Evans blue per unit weight of the matrigel was measured using an absorbance of 620 nm (n=8).

Akt = assay: VEGF-induced phosphorylation of Akt in HUVEC (Western blot); type: cell-based, human; conditions: 100 μM pretreatment 15 minutes, VEGF 30 ng/mL for 5 or 15 minutes
Method: as §1

p38 MAP kinase = assay: VEGF-induced phosphorylation of p38 MAP kinase in HUVEC (Western blot); type: cell-based, human; conditions: 100 μM pretreatment 15 minutes, VEGF 30 ng/mL for 5 or 15 minutes
Method: as §1

HUVEC [5] = assay: VEGF-induced tube formation of HUVEC in collagen; type: cell-based, human; conditions: 100 μM pretreatment 15 minutes, VEGF 30 ng/mL, after 24 hours
Method: An effect of L-carbocisteine against tube formation promoted by VEGF was evaluated in vitro using HUVEC. A collagen Type 1-C (available from Nitta Gelatin Inc.) lower layer was formed on a 12-well plate, HUVEC were inoculated on the lower layer, and a collagen upper layer was then formed. The HUVEC were pretreated with L-carbocisteine (100 μM) for 15 minutes, and stimulated by VEGF (30 ng/mL). The overall length of the lumen after 24 hours was measured (n=6).

Erk1/2 = assay: VEGF-induced phosphorylation of Erk1/2 in HUVEC (Western blot); type: cell-based, human; conditions: 100 μM pretreatment 15 minutes, VEGF 30 ng/mL for 5 or 15 minutes
Method: as §1

N[C@@H](CSCC(=O)O)C(=O)O [L-carbocisteine, S-(carboxymethyl)-L-cysteine]
migration promoted by VEGF (distance of cell migration) (HUVEC [1]): significantly suppressed
growth suppressive effect, concentration dependence (HUVEC [2]; 10, 50, 100 and 200 μM, 48 hours): concentration-dependent
endothelial cell growth promoted by VEGF (HUVEC [2]; pretreatment with 100 μM or more for 15 minutes, living cells after 48 hours): significantly suppressed
accelerated phosphorylation of JNK [3]: only accelerated phosphorylation of Erk1/2 was specifically suppressed
vascular density in the matrigel [4]: markedly decreased
accelerated phosphorylation of Akt (Akt): only accelerated phosphorylation of Erk1/2 was specifically suppressed
accelerated phosphorylation of p38 MAP kinase (p38 MAP kinase): only accelerated phosphorylation of Erk1/2 was specifically suppressed
tube formation promoted by VEGF (overall length of the lumen) (HUVEC [5]): significantly suppressed
accelerated phosphorylation of Erk1/2 (Erk1/2): specifically suppressed
